Test results reported in patent US6569882B2, “Bis-sulfonamide hydroxyethyl-amino retroviral protease inhibitors” (G. D. Searle & Co., priority 1995, dated 2003).
Read-outs that look alike come from different tables or passages of the source.

How the values were obtained:
HIV-1 in CEM cells = assay: CEM cell assay: HIV inhibition in acutely infected cells, tetrazolium (MTT) colorimetric; type: cell-based; details: Human immunodeficiency virus 1, CCRF-CEM, 168 h
Method: The effectiveness of various compounds were determined in the above-described enzyme assay and in a CEM cell assay.
The HIV inhibition assay method of acutely infected cells is an automated tetrazolium based colorimetric assay essentially that reported by Pauwles et al, J. Virol. Methods, 20, 309-321 (1988). Assays were performed in 96-well tissue culture plates. CEM cells, a CD4+ cell line, were grown in RPMI-1640 medium (Gibco) supplemented with a 10% fetal calf serum and were then treated with polybrene (2 μg/ml). An 80 μl volume of medium containing 1×10^4 cells was dispensed into each well of the tissue culture plate. To each well was added a 100 μl volume of test compound dissolved in tissue culture medium (or medium without test compound as a control) to achieve the desired final concentration and the cells were incubated at 37° C. for 1 hour. A frozen culture of HIV-1 was diluted in culture medium to a concentration of 5×10^4 TCID50 per ml (TCID50=the dose of virus that infects 50% of cells in tissue culture), and a 20 μL volume of the virus sample (containing 1000 TCID50 of virus) was added to wells containing test compound and to wells containing only medium (infected control cells). Several wells received culture medium without virus (uninfected control cells). Likewise, the intrinsic toxicity of the test compound was determined by adding medium without virus to several wells containing test compound. In summary, the tissue culture plates contained the following experiments:
In experiments 2 and 4 the final concentrations of test compounds were 1, 10, 100 and 500 μg/ml. Either azidothymidine (AZT) or dideoxyinosine (ddI) was included as a positive drug control. […] DMSO was added to all control wells at an appropriate concentration.
Following the addition of virus, cells were incubated at 37° C. in a humidified, 5% CO2 atmosphere for 7 days. Test compounds could be added on days 0, 2 and 5 if desired. On day 7, post-infection, the cells in each well were resuspended and a 100 μl sample of each cell suspension was removed for assay. A 20 μL volume of a 5 mg/ml solution of 3-(4,5-dimethylthiazol-2-yl)-2,5-diphenyltetrazolium bromide (MTT) was added to each 100 μL cell suspension, and the cells were incubated for 4 hours at […] in a 5% CO2 environment. […] To each sample was added 100 μl of 10% sodium dodecylsulfate in 0.01 N HCl to lyse the cells, and samples were incubated overnight. The absorbance at 590 nm was determined for each sample using a Molecular Devices microplate reader. Absorbance values for each set of wells is compared to assess viral control infection, uninfected control cell response as well as test compound by cytotoxicity and antiviral efficacy.

HIV protease = target: T1, HIV protease (Human immunodeficiency virus type 1 group M subtype B, UniProt P04585); assay: HIV protease enzyme assay (fluorescence, peptide substrate); type: biochemical; details: concentration reducing enzyme activity by 50%; substrate 80 μM, enzyme 12.3 nanomolar, pH 6.4
T1 construct: HIV protease is diluted in the assay buffer to a final enzyme concentration of 12.3 nanomolar, based on a molecular weight of 10,780
Text: The compounds of the present invention are effective HIV protease inhibitors. Utilizing an enzyme assay as described below, the compounds set forth in the examples herein disclosed inhibited the HIV enzyme. The preferred compounds of the present invention and their calculated IC50 (inhibiting concentration 50%, i.e., the concentration at which the inhibitor compound reduces enzyme activity by 50%) values are shown in Table 16. The enzyme method is described below. The substrate is 2-Ile-Nle-Phe(p-NO2)-Gln-ArgNH2. The positive control is MVT-101 (Miller, M. et al, Science, 246, 1149 (1989)] The assay conditions are as follows:
20 mM sodium phosphate, pH 6.4
The above described substrate is dissolved in DMSO, then diluted 10 fold in assay buffer. Final substrate concentration in the assay is 80 μM.
HIV protease is diluted in the assay buffer to a final enzyme concentration of 12.3 nanomolar, based on a molecular weight of 10,780.
The final concentration of DMSO is 14% and the final concentration of glycerol is 18%. The test compound is dissolved in DMSO and diluted in DMSO to 10× the test concentration; 10 μl of the enzyme preparation is added, the materials mixed and then the mixture is incubated at ambient temperature for 15 minutes. The enzyme reaction is initiated by the addition of 40 μl of substrate. The increase in fluorescence is monitored at 4 time points (0, 8, 16 and 24 minutes) at ambient temperature. Each assay is carried out in duplicate wells.

[1] = CEM cells acutely infected with HIV-1, 7 days, MTT readout, read-out: EC50

SMILES	EC50 (HIV-1 in CEM cells; [1])	IC50 (HIV protease)	EC50 (HIV-1 in CEM cells)
COc1ccc(S(=O)(=O)N(CC(C)C)C[C@@H](O)[C@H](Cc2ccccc2)NC(=O)[C@H](C)CS(=O)(=O)N2CCOCC2)cc1 [Example 1]	32 nM	10 nM	–
COc1ccc(S(=O)(=O)N(CC(C)C)C[C@@H](O)[C@H](Cc2ccccc2)NC(=O)[C@H](C)CS(=O)(=O)N2CCN(C)CC2)cc1 [Example 2]	–	8 nM	77 nM
COc1ccc(S(=O)(=O)N(CC(C)C)C[C@@H](O)[C@H](Cc2ccccc2)NC(=O)[C@H](C)CS(N)(=O)=O)cc1 [Example 3]	–	6 nM	40 nM
COc1ccc(S(=O)(=O)N(CC(C)C)C[C@@H](O)[C@H](Cc2ccccc2)NC(=O)[C@H](C)CS(=O)(=O)N(C)C)cc1 [Example 4]	–	4 nM	15 nM
COc1ccc(S(=O)(=O)N(CC(C)C)C[C@@H](O)[C@H](Cc2ccccc2)NC(=O)[C@H](C)CS(=O)(=O)N2CCCCC2)cc1 [Example 5]	–	13 nM	210 nM
COc1ccc(S(=O)(=O)N(CC(C)C)C[C@@H](O)[C@H](Cc2ccccc2)NC(=O)[C@H](C)CS(=O)(=O)N(Cc2ccccc2)C(c2ccccc2)c2ccccc2)cc1 [Example 6]	–	4 nM	–
COc1ccc(S(=O)(=O)N(CC(C)C)C[C@@H](O)[C@H](Cc2ccccc2)NC(=O)[C@H](C)CS(=O)(=O)NCc2ccccc2)cc1 [Example 7]	–	3 nM	32 nM
CC(C)CN(C[C@@H](O)[C@H](Cc1ccccc1)NC(=O)[C@H](C)CS(=O)(=O)N1CCNCC1)S(=O)(=O)c1ccc2c(c1)OCO2 [Example 8]	415 nM	9 nM	–
CC(C)CN(C[C@@H](O)[C@H](Cc1ccccc1)NC(=O)[C@H](C)CS(=O)(=O)N1CCN(Cc2ccccc2)CC1)S(=O)(=O)c1ccc2c(c1)OCO2 [Example 9]	84 nM	6 nM	–
CC(C)CN(C[C@@H](O)[C@H](Cc1ccccc1)NC(=O)[C@H](C)CS(=O)(=O)N1CCN(Cc2ccccn2)CC1)S(=O)(=O)c1ccc2c(c1)OCO2 [Example 10]	56 nM	10 nM	–
CC(C)CN(C[C@@H](O)[C@H](Cc1ccccc1)NC(=O)[C@H](C)CS(=O)(=O)N1CCN(Cc2cccnc2)CC1)S(=O)(=O)c1ccc2c(c1)OCO2 [Example 11]	–	9 nM	–
CC(C)CN(C[C@@H](O)[C@H](Cc1ccccc1)NC(=O)[C@H](C)CS(=O)(=O)N1CCN(Cc2ccncc2)CC1)S(=O)(=O)c1ccc2c(c1)OCO2 [Example 12]	42 nM	9 nM	–
CC(C)CN(C[C@@H](O)[C@H](Cc1ccccc1)NC(=O)[C@H](C)CS(=O)(=O)N1CCCC1)S(=O)(=O)c1ccc2c(c1)OCO2 [Example 13]	176 nM	6 nM	–
CC(C)CN(C[C@@H](O)[C@H](Cc1ccccc1)NC(=O)[C@H](C)CS(=O)(=O)N(C)c1ccccc1)S(=O)(=O)c1ccc2c(c1)OCO2 [Example 14]	85 nM	4 nM	–
CC(C)CN(C[C@@H](O)[C@H](Cc1ccccc1)NC(=O)[C@H](C)CS(=O)(=O)N(C)Cc1ccccc1)S(=O)(=O)c1ccc2c(c1)OCO2 [Example 15]	–	4 nM	–
